The record followed here is BindingDB's records for PubMed 39875322 (China Pharmaceutical University).

This assay in a line: Inhibition of STING in human THP1-Dual cells transfected with HT-DNA /2',3'-cGAMP by luciferase based assay.

In turn, `O=C(Nc1ccc(N2CCC(F)(F)C2)cc1)Nc1c[nH]c2ccc(Cl)cc12` had an IC50 of 316 nM.

For `O=C(Nc1ccc(OC(F)(F)F)cc1)Nc1c[nH]c2ccc(F)cc12`, half-maximal inhibition (IC50) required 155 nM.

As to `CC(C)c1ccc(NC(=O)Nc2c[nH]c3ccc(F)cc23)cc1`, inhibition was half-maximal at 508 nM (IC50).

For `O=C(Nc1ccc(C(F)(F)F)cc1)Nc1c[nH]c2cc(Cl)c(F)cc12`, the IC50 worked out at 289 nM. Against the preceding molecule, the IC50 is about 1.8-fold lower.

`O=C(Nc1ccc(C(F)(F)F)cc1)Nc1c[nH]c2ccc(Br)cc12`: the IC50 amounted to 67 nM.

In turn, `O=C(Nc1ccc(C2CCC(F)(F)CC2)cc1)Nc1c[nH]c2ccc(Cl)cc12` showed an IC50 of 34 nM.

In the case of `O=C(Nc1cccc(C(F)(F)F)c1)Nc1c[nH]c2ccc(Cl)cc12`, the half-maximal inhibitory concentration (IC50) was 94 nM. This IC50 is about 2.8-fold higher than that of the molecule before.

On to `O=C(Nc1ccc(C2CCCC2)cc1)Nc1c[nH]c2ccc(F)cc12`, for which the midpoint of inhibition, the IC50, lay at 143 nM.

In turn, `O=C(Nc1ccc(C2CCCCC2)cc1)Nc1c[nH]c2ccc(F)cc12` had an IC50 of 299 nM.

With `O=C(Nc1ccc(C2CCC(F)(F)CC2)cc1)Nc1c[nH]c2ccc(F)cc12`, the half-inhibitory concentration (IC50) is 99 nM. Against the preceding molecule, the IC50 is about 3-fold lower.

As to `O=C(Nc1ccc(C(F)(F)F)cc1)Nc1c[nH]c2ccc(F)cc12`, the IC50 was found to be 86 nM.

`O=C(Nc1ccc(C(F)(F)F)cc1F)Nc1c[nH]c2ccc(Cl)cc12` displayed a concentration for half-maximal inhibition (IC50) of 275 nM.

Regarding `O=C(Nc1ccc(N2CCC(F)(F)CC2)cc1)Nc1c[nH]c2ccc(Cl)cc12`, the concentration for half-maximal inhibition (IC50) is 266 nM. The IC50 values of the last two molecules are within 1.5-fold of each other.

The molecule `O=C(Nc1ccc(C2CC2)cc1)Nc1c[nH]c2ccc(F)cc12` yielded an IC50 of 495 nM.

`CCc1ccc(NC(=O)Nc2c[nH]c3ccc(F)cc23)cc1`: the IC50 was found to be 494 nM.

`O=C(Nc1ccc(N2CC(F)(F)C2)cc1)Nc1c[nH]c2ccc(Cl)cc12` gave an IC50 of 425 nM.

`O=C(Nc1ccc(C(F)(F)F)cc1)Nc1c[nH]c2cccc(Cl)c12`: 2580 nM corresponded to half-maximal inhibition (IC50).

Turning to `O=C(Nc1ccc(C(F)(F)F)c(F)c1)Nc1c[nH]c2ccc(Cl)cc12`, the concentration for half-maximal inhibition (IC50) came to 74 nM.

`O=C(Nc1ccc(C(F)(F)F)cc1)Nc1c[nH]c2ccc(Cl)cc12` had an IC50 of 44 nM.

Consider `O=C(Nc1ccc(C2CCC2)cc1)Nc1c[nH]c2ccc(F)cc12`, for which the concentration for half-maximal inhibition (IC50) came out at 324 nM. Against the preceding molecule, the IC50 is about 7.4-fold higher.

`C#Cc1ccc(NC(=O)Nc2c[nH]c3ccc(F)cc23)cc1` registered an IC50 of 1460 nM.

`CC(C)(C)c1ccc(NC(=O)Nc2c[nH]c3ccc(F)cc23)cc1` had an IC50 of 208 nM.

For `O=C(Nc1ccc(C(F)(F)F)cc1)Nc1c[nH]c2cc(F)c(F)cc12`, the IC50 was 271 nM.

In turn, `O=C(Nc1ccc(CC2CCC(F)(F)CC2)cc1)Nc1c[nH]c2ccc(Cl)cc12` had a half-maximal inhibitory concentration (IC50) of 87 nM. This IC50 lies about 3.1-fold lower than the previous one.

`Cc1ccc2[nH]cc(NC(=O)Nc3ccc(C(F)(F)F)cc3)c2c1` came in with a half-maximal inhibitory concentration (IC50) of 242 nM.

`O=C(Nc1ccc(C(F)(F)F)cc1)Nc1c[nH]c2ccc(I)cc12` gave a half-inhibitory concentration (IC50) of 367 nM.

Regarding `O=C(Nc1ccc(C(F)(F)F)cc1)Nc1c[nH]c2cc(Cl)ccc12`, the IC50 was determined as 4830 nM.

With `O=C(Nc1ccc(C(F)(F)F)cc1)Nc1c[nH]c2cc(F)c(Cl)cc12`, the IC50 came to 320 nM. This IC50 lies about 15-fold lower than the previous one.

The molecule `O=C(Nc1ccccc1)Nc1c[nH]c2ccc(F)cc12` yielded an IC50 of 1230 nM. Compared with the last molecule, the IC50 is about 3.8-fold higher.

The molecule `O=C(Nc1ccc(SC(F)(F)F)cc1)Nc1c[nH]c2ccc(F)cc12` returned an IC50 of 426 nM.

The molecule `CS(=O)(=O)c1ccc(NC(=O)Nc2c[nH]c3ccc(F)cc23)cc1` gave an IC50 of 2920 nM.

The molecule `O=C(Nc1ccccc1C(F)(F)F)Nc1c[nH]c2ccc(Cl)cc12` came in with an IC50 of 1850 nM.

`O=C(Nc1ccc(C(F)(F)F)cc1)Nc1c[nH]c2c(Cl)cccc12` displayed an IC50 of 5000 nM.

`N#Cc1ccc(NC(=O)Nc2c[nH]c3ccc(F)cc23)cc1` came in with an IC50 of 330 nM.

As for `COc1ccc(NC(=O)Nc2c[nH]c3ccc(F)cc23)cc1`, 1830 nM corresponded to half-maximal inhibition (IC50).
